Reference: article PMC7473840, “Identification of a molecular locus for normalizing dysregulated GABA release from interneurons in the Fragile X brain” (Molecular Psychiatry, 2018)
“Also recorded” adds a separate entry of the source. Where two headings read alike, the source gives them in different places. Non-standard residues stand in square brackets, D forms with d. Residues, ends and D or L forms follow the SMILES beside them. pS = N[C@@H](COP(=O)(O)O)C(=O)O

Experiments:
[1] = biological target: T1, recombinant full-length FMRP (isoform 1) (Homo sapiens, UniProt Q06787); assay: In vitro intrinsic protein fluorescence binding assay; conditions: for Kd: 1 μM FMRP, pH 7.4, 20 °C; for change of fluorescence emission spectrum of FMRP (binding): 500–1000 μM peptide and 1 μM FMRP, 100 mM NaCl, 50 mM Na2PO4 pH 7.4, 2 mM DTT, 20 °C, excitation 287 nm; for co-operativity of binding to dimeric FMRP: fit of binding data to dimer models
T1 construct: containing cDNA for full-length human FMRP; His-SUMO (N, cleaved yes); made in house; host or cells: Escherichia coli BL21 (DE3) Codon Plus
Protocol: Small Ubiquitin-like Modifier (SUMO) fusion construct containing cDNA for full-length human FMRP was generated by gene synthesis (GenScript USA Inc.) and subcloned into a pET SUMO vector (Invitrogen). […] The pET SUMO–FMRP construct was transformed into Escherichia coli BL21 (DE3) Codon Plus cells and grown at 37 °C in Lennox broth medium. Protein expression was induced with 0.5 mM isopropyl-β-D-thiogalactopyranoside when optical density reached ~0.6, followed by 18 h of additional growth at 16 °C. Cells were harvested by centrifugation and pellets stored at −20 °C. In order to purify SUMO–FMRP, thawed pellets were resuspended in lysis buffer [50 mM Tris, pH 8.0, 500 mM NaCl, 20 mM imidazole, 10% glycerol, 250 mM arginine, 5 mM benzamidine, and 2 mM dithiothreitol (DTT)], supplemented with DNAse 1 and cOmplete™ Protease Inhibitor Cocktail (Sigma-Aldrich). After cell lysis and centrifugation, the filtered supernatant was loaded onto a 20 ml NiNTA column equilibrated in the same lysis buffer. The column was extensively washed with 20 column volumes (CV) of the same buffer supplemented with 100 mM imidazole. Elution of SUMO-fusion FMRP was performed using 100–500 mM imidazole gradient, and protein-containing fractions were combined and a 6× His tagged Ulp protease was added. Cleavage of the His-SUMO tag was performed overnight in a cold room (7 °C) while dialyzing in 4 L of 50 mM Tris, pH 8.0, 500 mM NaCl, 50 mM imidazole, 10% glycerol, 250 mM arginine, 5 mM benzamidine, and 2 mM DTT. Complete cleavage of the SUMO tag by Ulp was confirmed by SDS-PAGE and the protein of interest was separated from the Ulp protease and SUMO tag by passing the cleavage reaction over a second NiNTA column. Flow-through and wash fractions containing protein of interest were combined and then loaded onto a Superdex 200 gel filtration column pre-equilibrated with the same lysis buffer.
The eluted purified proteins were analyzed by both SDS-PAGE and mass spectrometry, and the combined fractions were dialyzed three times in 5 L of Fluorescence Binding Buffer (100 mM NaCl, 50 mM Na2PO4 pH 7.4, 2 mM DTT). After filtering through a 0.22 μm GV Durapore Centrifugal Filter Unit (Millipore), FMRP concentration was determined by absorbance at 280 nm using a molar extinction coefficient of 48,360 M^−1 cm^−1, and the protein was used for binding studies with Kv1.2 C-terminal peptides.
All measurements were carried out in the Fluorescence Binding Buffer at 20 °C using a PTI Quanta Master 80 Spectrofluorometer (HORIBA Scientific) by monitoring intrinsic protein fluorescence with an excitation wavelength of 287 nm. Prior to performing a binding titration for any of the peptides, a full emission spectrum (300–450 nm) of the peptide:FMRP complex was compared to that of apo-FMRP. Differences in the spectrum of the complex (500–1000 μM peptide and 1 μM FMRP) and apo-FMRP at the same concentration (i.e., fluorescence quenching, enhancement or shifts of the emission maximum) indicated binding. For each of these peptides, binding measurements were performed by adding aliquots of saturated 1 µM FMRP:peptide complex (titration solution) to 400 μL of 1 μM apo-FMRP solution as described by Wells and Di Cera. Briefly, at each titration step, a volume vD was removed from the cuvette containing the apo-FMRP and replaced by an equal volume of the titration solution (1 μM FMRP: 200–500 μM peptide complex). As a result, the concentration of FMRP (1 μM) and total volume of solution in the cuvette, V = 400 μL, remained constant while the concentration of the peptide at the ith titration step, [peptide]i, was increased, and given by
[peptide]i = [peptide]0^i.D^i+[peptide]∞^i.(1 − D^i),
where, [peptide]0 was the initial peptide concentration in the cuvette, [peptide]∞ was the peptide concentration in the titration solution, and D was the dilution factor, D = (V − vD)/V. […]

[2] = tested on: PNs, WT and Fmr1-KO cerebellar slices; format: cell-based, mouse
[3] = tested on: PNs, Fmr1-KO cerebellar slices; assay: Spontaneous firing of PNs, cell-attached, Fmr1-KO; format: cell-based, mouse; conditions: 10 μM, co-applied with NBQX (10 μM); Fmr1-KO compared with WT
[4] = tested on: Kv1.2–FMRP interaction, cerebellar homogenates; assay: Co-IP of Kv1.2 with FMRP (anti-FMRP antibody), peptide blocking; format: binding; conditions: WT mouse cerebellar homogenates; 250 μM peptide added prior to anti-FMRP antibody; immunoblot; at least in triplicate
Protocol: Whole cerebellums from WT and Fmr1 KO mice were homogenized in ice-cold Pull-Down buffer (1% Lubrol, 50 mM Tris–HCl, pH 7.4, 10 nM Na-orthovanadate, 30 mM Na-pyrophosphate, 50 mM NaF, 20 μm ZnCl2, and 0.25 mM PMSF, with the addition of protease inhibitor cocktail) using a Potter-Elvehjem grinding chamber (VWR). Samples were then centrifuged at 5000g for 20 min and 500 μL of supernatants were transferred into 1.5 ml Eppendorf tubes. 1:100 dilutions of anti-FMRP (Abcam 17722), anti-Kv1.2 (K14/16; Neuromab), anti-Kv1.2 ext-c (extracellular; Alomone labs), anti-Kv1.2 N-term (NBP1-42802; Novus), or anti-GAPDH (GAPDH-71.1; 1:80,000; Sigma-Aldrich) antibodies were added to the homogenate and incubated at 4 °C under continuous agitation for 2 h. A total 30 μL of a 1:1 mixture of pre-washed protein A and protein G magnabeads (Genscript) was then added and the samples were incubated under the same conditions for another 2 h. Beads were washed 4 times with PBS-Tween (0.2% Tween w/v) and then centrifuged at 3000g for 1 min. A sample was kept to verify total protein input. Protein was disassociated from the beads with the addition of 30 μL of 2× loading buffer (4% SDS, 20% glycerol w/v, 0.1 M dithiothreitol, 100 mM Tris–HCl, pH 6.8) then submitting the samples to 3 min at 95 °C. […] Bands were quantified as previously described using the AlphaEase SA software. […]

BC–PN synapse, WT = assay: sIPSCs from PNs, paired BC–PN recording, WT synapses; format: cell-based, mouse; conditions: peptide 2.5 mM infused into WT BCs, before and 20 min after; n = 5-6

CC[C@H](C)[C@H](NC(=O)[C@@H](NC(=O)[C@H](CO)NC(=O)[C@H](C)NC(=O)[C@H](CO)NC(=O)[C@H](CCCNC(=N)N)NC(=O)[C@H](CO)NC(=O)[C@H](CCCCN)NC(=O)[C@H](CCCCN)NC(=O)[C@H](CC(C)C)NC(=O)[C@H](CC(=O)O)NC(=O)[C@@H]1CCCN1C(=O)[C@H](COP(=O)(O)O)NC(=O)[C@H](COP(=O)(O)O)NC(=O)[C@@H]1CCCN1C(=O)[C@@H](NC(=O)[C@H](CCCCN)NC(=O)[C@@H]1CCCN1)[C@@H](C)CC)[C@@H](C)O)C(=O)N[C@@H](CO)C(=O)N[C@@H](CCCCN)C(=O)N[C@@H](CO)C(=O)N[C@@H](CC(=O)O)C(=O)O [PhosKv436-457] (H-PKIP[pS][pS]PDLKKSRSASTISKSD-OH)
Kd ([1]; model D1: dimer with one binding site, read-out: KD1, model D1): 10.1 ± 4.4 µM
Kd ([1]; model D2i: dimer with two independent binding sites, read-out: KD1, model D2i): 1.08 ± 0.26 µM

NC1=N[C@H](O)[C@H]2[C@H]3O[C@]4(O)O[C@@H]([C@@H](O)[C@@]2(N1)[C@@H]4O)[C@]3(O)CO [TTX, tetrodotoxin]
amplitude and frequency of mIPSCs, WT versus KO [2]: the amplitude and frequency of mIPSCs became indistinguishable between the two groups

CN1CCc2cc3c(cc2[C@H]1[C@@H]1OC(=O)c2c1ccc1c2OCO1)OCO3 [bicuculline]
difference in PN firing rates between WT and KO [3]: the differences in PN firing rates were abolished
elimination of IPSC events ([2]; 10 μM, holding −60 mV): eliminated all the events

CC[C@H](C)[C@H](NC(=O)[C@@H](NC(=O)[C@H](CO)NC(=O)[C@H](C)NC(=O)[C@H](CO)NC(=O)[C@H](CCCNC(=N)N)NC(=O)[C@H](CO)NC(=O)[C@H](CCCCN)NC(=O)[C@H](CCCCN)NC(=O)[C@H](CC(C)C)NC(=O)[C@H](CC(=O)O)NC(=O)[C@@H]1CCCN1C(=O)[C@H](CO)NC(=O)[C@H](COP(=O)(O)O)NC(=O)[C@@H]1CCCN1C(=O)[C@@H](NC(=O)[C@H](CCCCN)NC(=O)[C@@H]1CCCN1)[C@@H](C)CC)[C@@H](C)O)C(=O)N[C@@H](CO)C(=O)N[C@@H](CCCCN)C(=O)N[C@@H](CO)C(=O)N[C@@H](CC(=O)O)C(=O)O [pS440] (H-PKIP[pS]SPDLKKSRSASTISKSD-OH; N-terminus and C-terminus assumed)
change of fluorescence emission spectrum of FMRP (binding) [1]: significant spectral changes; also recorded: phosphorylation-mediated interaction
co-operativity of binding to dimeric FMRP [1]: with cooperativity; also recorded: binds dimeric FMRP in a co-operative mechanism
reduced χ2 of fit, model D1 [1]: 11.6
χ2 of fit, model D1 [1]: 92.8
enhancement of binding affinity of second ligand by binding of the first ([1]; model D2c): ~ 80 fold
reduced χ2 of fit, model D2c ([1]; model D2c): 0.16
χ2 of fit, model D2c ([1]; model D2c): 0.99
reduced χ2 of fit, model D2i [1]: 2.3
χ2 of fit, model D2i [1]: 16.4

CC[C@H](C)[C@H](NC(=O)[C@@H](NC(=O)[C@H](CO)NC(=O)[C@H](C)NC(=O)[C@H](CO)NC(=O)[C@H](CCCNC(=N)N)NC(=O)[C@H](CO)NC(=O)[C@H](CCCCN)NC(=O)[C@H](CCCCN)NC(=O)[C@H](CC(C)C)NC(=O)[C@H](CC(=O)O)NC(=O)[C@@H]1CCCN1C(=O)[C@H](COP(=O)(O)O)NC(=O)[C@H](CO)NC(=O)[C@@H]1CCCN1C(=O)[C@@H](NC(=O)[C@H](CCCCN)NC(=O)[C@@H]1CCCN1)[C@@H](C)CC)[C@@H](C)O)C(=O)N[C@@H](CO)C(=O)N[C@@H](CCCCN)C(=O)N[C@@H](CO)C(=O)N[C@@H](CC(=O)O)C(=O)O [pS441] (H-PKIPS[pS]PDLKKSRSASTISKSD-OH; N-terminus and C-terminus assumed)
change of fluorescence emission spectrum of FMRP (binding) [1]: significant spectral changes; also recorded: phosphorylation-mediated interaction
binding affinity relative to the other phospho-peptides ([1]; FMRP dimer models): did bind with similar affinities
co-operativity of binding to dimeric FMRP [1]: without cooperativity; also recorded: did not produce co-operative binding effects
reduced χ2 of fit, model D1 [1]: 10
χ2 of fit, model D1 [1]: 106
fit to D2c model ([1]; model D2c): could not be fitted to the D2c model
reduced χ2 of fit, model D2i [1]: 11
χ2 of fit, model D2i [1]: 107
KD tighter than the KD1 of pS440 ([1]; models D1 and D2i versus KD1 of pS440 (D2c)): ~ 5 fold
KD weaker than the KD2 of pS440 ([1]; models D1 and D2i versus KD2 of pS440 (D2c)): ~ 15 fold

IKPSTLSDSRAKpSSDPpSKPSIK [scrambled]
inhibition of Kv1.2–FMRP binding (co-IP) [4]: Neither the non-phosphorylated peptide with the identical sequence (Kv436-457, ^436PKIPSSPDLKKSRSASTISKSD^457) nor the doubly-phosphorylated scrambled peptide (IKPSTLSDSRAKpSSDPpSKPSIK) inhibited the Kv1.2–FMRP binding activity
change of fluorescence emission spectrum of FMRP (binding) [1]: no change in the fluorescence emission spectrum of FMRP
change of fluorescence emission spectrum of FMRP (binding) ([1]; listed as doubly-phosphorylated scrambled peptide): no binding
amplitude and frequency of sIPSCs (BC–PN synapse, WT): but not the non-phosphorylated or scrambled phosphorylated peptide, significantly elevated the amplitude and frequency of sIPSCs
